{
  "source": "patent US6734168B2",
  "about": "“Endothelial monocyte activating polypeptide II: a mediator which activates host response” (The Trustees of Columbia University in the City of New York, priority 1993, dated 2004)",
  "key": {"[1]": {"test_system": "human PMNs", "experiment": "PMN migration in microchemotaxis chambers", "type": "cell-based", "parameters": "key to PMN MIGRATION: (+) indicates the peptide induced PMN migration; (−) indicates the peptide did not induce PMN migration above levels seen in controls which contained no chemotactic stimulus", "conditions": "for PMN MIGRATION: peptides 100 pM in each case; for Induction of PMN migration (chemotaxis): microchemotaxis chamber, 45 min at 37° C.", "description": "(§1) Assessment of mononuclear phagocyte (mononuclears) and polymorphonuclear leukocyte (PMN) migration. Human peripheral blood monocytes were isolated from the blood of normal healthy volunteers (30). Blood was centrifuged on Hisopaque 1077 (Sigma, St. Louis, Mo.), the mononuclear fraction was obtained, washed twice in Earle's balanced salt solution, resuspended in RPMI 1640 containing human serum (10%; Gemini, Calabasas, Calif.), plated on tissue culture dishes and incubated at 37° C. for 1-2 hrs. Nonadherent cells were removed by washing the plate twice with balanced salt solution, and adherent cells were harvested by incubation with calcium-magnesium free buffer containing EDTA (2 mM) for 15 min at 37° C., followed by extensive washing. PMNs were prepared by centrifugation over Hisopaque 1119 as per the manufacturer's protocol (Sigma). Chemotaxis assays were performed in microchemotaxis chamber (NeuroProbe, Bethesda, Md.) containing Nucleopore polycarbonate membranes (5 μm; Nucleopore, Pleasonton, Calif.). Mononuclears or PMNs were suspended in RPMI 1640 containing fetal bovine serum (1%) and 10^4 cells were added per well to the upper chamber. The chemotactic stimulus was added to the indicated chamber, and assays were performed in quadruplicate over a 3 hr or 45 min incubation period at 37° C., with mononuclear cells or PMNs, respectively, after which non-migrating cells were removed, membranes were fixed in methanol, migrating cells were visualized with Wright's stain. Cells in nine high-power fields were counted, and the mean and standard error of the mean (SEM) were determined.\n(§2) Cell migration was studied by adding MPs or PMNs (10^4 cells/well) resuspended in RPMI 1640 with fetal calf serum (1%; Gemini) to the upper wells of a microchemotaxis chamber (Neuro Probe, Bethesda, Md.) containing Nucleopore polycarbonate membranes (5 μm, Nucleopore, Pleasanton Calif.), as described (7,29-30). The chemotactic stimulus was placed in the upper or lower chamber, as indicated, and cells were allowed to migrate for 3 hrs (for MPs) or 45 min (for PMNs) at 37° C. Following removal of non-migrating cells, membranes were fixed in methanol and migrating cells were visualized with Wright's stain. Assays were performed in quadruplicate, and cells were counted in nine high-power fields in each case (mean±SEM is shown in the figures).\n(§3) Migration of PMNs and MPs—Migration was studied using cells (10^4 and 10^3 cells/well form PMNs and MPs, respectively) resuspended in RPMI 1640 with fetal calf serum (1%) added to the upper wells of a microchemotaxis chamber (Neuro Probe, Bethesda, Md.) containing Nucleopore polycarbonate membranes (5 um, Nucleopor, Pleasanton, Calif.), as described (13, 22, 35). The stimulus was placed in the upper or lower chamber, as indicated, and the cells were allowed to migrate for 3 h (for MPs) or 45 min (for PMNs) at 37° C. Following removal of nonmigrating cells, membranes were fixed in methanol, and migrating cells were visualized with Wright's stain. Assays were performed in quadruplicate, and cells were counted in […] high-power fields in each case (mean±S.E. is shown in the figures)."}, "[2]": {"test_system": "human peripheral blood monocytes (MPs)", "experiment": "Mononuclear phagocyte migration in microchemotaxis chambers", "type": "cell-based", "conditions": "microchemotaxis chamber, 3 hrs at 37° C.", "description": "as §1, §2, §3"}, "[3]": {"test_system": "human MPs", "experiment": "Radioligand binding of 125I-[…] to MPs", "conditions": "for Competition for binding of 125I-RIGRIVTAKY to MPs by unlabelled peptide/protein: excess / increasing concentrations of unlabelled competitor", "description": "Radioligand binding studies were performed on human MPs plated in 96-well plates (5-6×10^4 cells/well). Cells were washed twice with Hanks balanced salt solution, and then Dulbecco's Modified Eagle Medium containing HEPES (25 mM; pH 7.4), penicillin/streptomycin (50 U/ml; 50 μg/ml), and bovine serum albumin-fatty acid free (0.5%; Sigma) were added (0.1 ml/well). Cultures were incubated at 4° C. for 2 hrs with ^125I-[…] alone or in the presence of unlabelled peptide/protein. Each well was washed four times over a period of 20 sec, and cell-associated radioactivity was eluted by an acidic buffer (HCl, 0.1 M, pH 2; NaCl, 0.1 M) at 4° C. for 5 min. During the elution period, there was no detachment of cells from the growth substrate. The conditions for incubation and washing used in the binding studies shown in FIG. 3 (2 hrs at 4° C.) were […] to allow binding of ^125I-[…] to reach an apparent maximum, even at the lowest tracer concentrations, and to remove unbound material by washing quickly so that <10% of the cell-bound radioactivity dissociated."}, "[4]": {"test_system": "human PMNs", "experiment": "[Ca2+]i measurement in PMNs (fura-2)", "type": "cell-based", "description": "(§4) [Ca^2+1]i measurements. PMNs or MPs (2×10^7 cells in each case) were incubated with fura-2 AM (1 μM) and pluronic detergent (0.02%) for 12 min at room temperature, diluted sixfold, and incubated for a further 30 min at room temperature to allow for complete hydrolysis of the dye. Cells were then resuspended in HEPES-buffered saline at 5×10^5 cells/ml (32). For experiments using MPs, sulfinpyrazone (0.5 mM) was included at all steps to minimize both dye sequestration into intracellular organelles and dye efflux (33). Fluorescence of fura-2 was monitored at 37° C. in a thermostatically-controlled cuvette installed in a Perkin Elmer Model 650-40 fluorescense spectrophotometer. Calibration of [Ca^2+]i was performed as described (34).\n(§5) For determination of [Ca^2+] in PMSs and MPs, cells (2×10^7 in each case) were incubated with fura-2 AM (1 um) and pluronci detergent (0.02%) at room temperature, diluted 6-fold, and incubated for a further 30 min at room temperature to allow for complete hydrolysis of the dye. Cells were then resuspended in HEPES-buffered saline at 5×10^5 cells/ml (32). For MPs, sulfinpyrazone (0.5 mM) was included at all steps to minimize both dye sequestration into intracellular organelles and dye efflux (33). Fluorescence of fura-2 was monitored at 37° C. in a thermostatically controlled cuvette installed in a Perkin Elmer model 650-40 fluorescence spectrophotometer. Calibration of [Ca^2+] was performed as described (34)."}, "[5]": {"test_system": "human MPs", "experiment": "[Ca2+]i measurement in MPs (fura-2)", "type": "cell-based", "description": "as §4\nas §5, with “Calibration of [Ca^2+] was performed as described (34).” left out"}, "[6]": {"test_system": "ECs", "experiment": "Pilot binding studies using ECs", "conditions": "data not shown"}},
  "note": "No end group written: not given here.",
  "data": [
    {"substance": "LRIGRIVTAKY", "values": [
      {"measurement": "PMN MIGRATION", "setting": "[1]", "value": "+"}
    ]},
    {"substance": "IRKDMDKVETFLRIVQ [irrelevant peptide derived from growth hormone, reference compound]", "values": [
      {"measurement": "Induction of PMN migration (chemotaxis)", "setting": "[1]", "value": "no chemotaxis was observed"},
      {"measurement": "Induction of MP (mononuclear cell) migration (chemotaxis)", "setting": "[2]", "value": "inactive"}
    ]},
    {"substance": "RIGRIIT", "values": [
      {"measurement": "PMN MIGRATION", "setting": "[1]", "value": "+"}
    ]},
    {"substance": "ASRLDLRTGRIVT", "values": [
      {"measurement": "Competition for binding of 125I-RIGRIVTAKY to MPs by unlabelled peptide/protein", "setting": "[3]", "value": "blocked"}
    ]},
    {"substance": "AVLPRSAKELRL [peptide derived from the ELR-region of IL-8, residues #23-34, reference compound]", "values": [
      {"measurement": "Induction of PMN migration (chemotaxis)", "setting": "[1]", "value": "no chemotaxis was observed"},
      {"measurement": "Induction of MP (mononuclear cell) migration (chemotaxis)", "setting": "[2]", "value": "inactive"}
    ]},
    {"substance": "RIGRAVT", "values": [
      {"measurement": "PMN MIGRATION", "setting": "[1]", "value": "−"},
      {"measurement": "Competition for binding of 125I-RIGRIVTAKY to MPs by unlabelled peptide/protein", "setting": "[3]", "value": "had no effect"}
    ]},
    {"substance": "RIGRIVT", "values": [
      {"measurement": "Rise in [Ca2+]i in PMNs", "setting": "[4]", "value": "did not promote enhanced [Ca^2+]i"},
      {"measurement": "PMN MIGRATION", "setting": "[1]", "value": "+"},
      {"measurement": "Competition for binding of 125I-RIGRIVTAKY to MPs by unlabelled peptide/protein", "setting": "[3]", "value": "blocked"},
      {"measurement": "Rise in [Ca2+]i in MPs", "setting": "[5]", "value": "insufficient to promote increases in [Ca^2+]i"}
    ]},
    {"substance": "RICRIVTAK", "values": [
      {"measurement": "Competition for binding of 125I-RIGRIVTAKY to MPs by unlabelled peptide/protein", "setting": "[3]", "value": "inhibition"}
    ]},
    {"substance": "125I-RIGRIVTAKY (also: 125I label)", "values": [
      {"measurement": "N, binding sites", "setting": "[3]; 4° C.", "value": "8.3±1.2×10^3 molecules of peptide bound per cell"},
      {"measurement": "Kd", "setting": "[3]; read-out: Kd of specific binding to MPs (one-site model), 4° C.", "value": "0.19 ± 0.11", "unit": "nM"},
      {"measurement": "Specific binding to ECs", "setting": "[6]", "value": "specific binding"}
    ]},
    {"substance": "ASRLDLRIGRIVTAK", "values": [
      {"measurement": "PMN MIGRATION", "setting": "[1]", "value": "+"}
    ]},
    {"substance": "ASRLDL", "values": [
      {"measurement": "Rise in [Ca2+]i in PMNs", "setting": "[4]", "value": "inactive"},
      {"measurement": "PMN MIGRATION", "setting": "[1]", "value": "−"},
      {"measurement": "Competition for binding of 125I-RIGRIVTAKY to MPs by unlabelled peptide/protein", "setting": "[3]", "value": "had no effect"}
    ]},
    {"substance": "RIGRIVTAKY", "values": [
      {"measurement": "Rise in [Ca2+]i in PMNs", "setting": "[4]", "value": "did not promote enhanced [Ca^2+]i"},
      {"measurement": "PMN MIGRATION", "setting": "[1]", "value": "+"}
    ]},
    {"substance": "AIGRIVT", "values": [
      {"measurement": "PMN MIGRATION", "setting": "[1]", "value": "+"}
    ]},
    {"substance": "CRAQTMANSGIK [peptide derived from the C-terminal portion of EMAP II, reference compound]", "values": [
      {"measurement": "Induction of PMN migration (chemotaxis)", "setting": "[1]", "value": "no chemotaxis was observed"},
      {"measurement": "Induction of MP (mononuclear cell) migration (chemotaxis)", "setting": "[2]", "value": "inactive"},
      {"measurement": "Competition for binding of 125I-RIGRIVTAKY to MPs by unlabelled peptide/protein", "setting": "[3]", "value": "had no effect"}
    ]},
    {"substance": "ASRLDLRIGC*IVTAK", "values": [
      {"measurement": "PMN MIGRATION", "setting": "[1]", "value": "+"}
    ]}
  ]
}
